Assay results from the supplement of paper PMC13380429.

Experiments:
Details in all cases: 72 h
Caco-2 [1] = assay: cell viability relative to DMSO; higher = less toxic
Calu-3 [2] = assay: as above
HepG2 [3] = assay: as above
Vero E6 [4] = assay: as above
Caco-2 [5] = assay: relative viability EC50 (midpoint between 100% and the lowest measured viability); higher = less toxic
Calu-3 [6] = assay: as above
HepG2 [7] = assay: as above
Vero E6 [8] = assay: as above
Caco-2 [9] = assay: drug sensitivity score (DSS) for viability; higher = more toxic; extreme values may be limits of the assay
Calu-3 [10] = assay: as above
HepG2 [11] = assay: as above
Vero E6 [12] = assay: as above
U2OS [13] = assay: cell viability relative to DMSO; higher = less toxic
U2OS [14] = assay: relative viability EC50 (midpoint between 100% and the lowest measured viability); higher = less toxic
U2OS [15] = assay: drug sensitivity score (DSS) for viability; higher = more toxic; extreme values may be limits of the assay

Structure (SMILES) | cell viability (Caco-2 [1]; 1 nM) [%] | cell viability (Caco-2 [1]; 10 nM) [%] | cell viability (Caco-2 [1]; 100 nM) [%] | cell viability (Caco-2 [1]; 1000 nM) [%] | cell viability (Caco-2 [1]; 10000 nM) [%] | cell viability (Calu-3 [2]; 1 nM) [%] | cell viability (Calu-3 [2]; 10 nM) [%] | cell viability (Calu-3 [2]; 100 nM) [%] | cell viability (Calu-3 [2]; 1000 nM) [%] | cell viability (Calu-3 [2]; 10000 nM) [%] | cell viability (HepG2 [3]; 1 nM) [%] | cell viability (HepG2 [3]; 10 nM) [%] | cell viability (HepG2 [3]; 100 nM) [%] | cell viability (HepG2 [3]; 1000 nM) [%] | cell viability (HepG2 [3]; 10000 nM) [%] | cell viability (Vero E6 [4]; 1 nM) [%] | cell viability (Vero E6 [4]; 10 nM) [%] | cell viability (Vero E6 [4]; 100 nM) [%] | cell viability (Vero E6 [4]; 1000 nM) [%] | cell viability (Vero E6 [4]; 10000 nM) [%] | relative viability EC50 (Caco-2 [5]) [µM] | relative viability EC50 (Calu-3 [6]) [µM] | relative viability EC50 (HepG2 [7]) [µM] | relative viability EC50 (Vero E6 [8]) [µM] | drug sensitivity score (Caco-2 [9]) | drug sensitivity score (Calu-3 [10]) | drug sensitivity score (HepG2 [11]) | drug sensitivity score (Vero E6 [12]) | cell viability (U2OS [13]; 1 nM) [%] | cell viability (U2OS [13]; 10 nM) [%] | cell viability (U2OS [13]; 100 nM) [%] | cell viability (U2OS [13]; 1000 nM) [%] | cell viability (U2OS [13]; 10000 nM) [%] | relative viability EC50 (U2OS [14]) [µM] | drug sensitivity score (U2OS [15])
Cn1cc(-c2ccc3ncc(Cc4ccc5ncccc5c4)n3n2)cn1 [NVP-BVU972] | 96.2 | 99.2 | 93.8 | 97.8 | 76.4 | 95.9 | 100 | 98.6 | 101 | 80.8 | 105 | 107 | 87.2 | 35.8 | 15.6 | 103 | 100 | 103 | 108 | 87.8 | > 10 | > 10 | 0.404 | > 10 | 1.2 | 0.5 | 13.6 | 0 | – | – | – | – | – | – | –
O=c1onc2cnc3ccccc3n12 [ODQ] | 91.3 | 96 | 95.2 | 89.9 | 112 | – | – | – | – | – | 105 | 110 | 100 | 110 | 94.3 | 97.9 | 96.4 | 97.6 | 108 | 105 | > 10 | – | > 10 | > 10 | 0 | – | 0 | 0 | – | – | – | – | – | – | –
O=C(O)[C@H](Cc1c[nH]c2ccccc12)N1C(=O)c2ccccc2C1=O [RG108] | 96.8 | 100 | 91.9 | 106 | 102 | – | – | – | – | – | 118 | 109 | 114 | 99.8 | 109 | 97.4 | 99.1 | 97.6 | 92 | 101 | > 10 | – | > 10 | > 10 | 0 | – | 0 | 0 | 105 | 105 | 97.1 | 105 | 96.2 | > 10 | 0
O=C(O)CCN(O)C(=O)CCCCCCCCC1CC1 [TC-E-5002] | 89 | 97.7 | 91.3 | 92.1 | 91.9 | – | – | – | – | – | 96.1 | 103 | 101 | 99.3 | 104 | 97.2 | 99.2 | 97.7 | 93.2 | 94.9 | > 10 | – | > 10 | > 10 | 0 | – | 0 | 0 | – | – | – | – | – | – | –
CC(=O)Nc1ccc(S(=O)(=O)c2ccc(NC(C)=O)cc2)cc1 [acedapsone] | 119 | 115 | 96.2 | 108 | 92.9 | – | – | – | – | – | 105 | 97.3 | 86.3 | 107 | 102 | 106 | 101 | 105 | 99.5 | 98.8 | > 10 | – | > 10 | > 10 | 0 | – | 0 | 0 | 104 | 108 | 102 | 104 | 97.4 | > 10 | 0
NS(=O)(=O)c1cc2c(cc1C(F)(F)F)NC(Cc1ccccc1)NS2(=O)=O (stereo not given) [bendroflumethiazide] | 96.6 | 101 | 96.9 | 99.1 | 108 | 109 | 110 | 107 | 98.2 | 95.1 | 106 | 87.1 | 98.7 | 93.3 | 98.6 | 92.4 | 94.9 | 91.7 | 92.4 | 109 | > 10 | > 10 | > 10 | > 10 | 0 | 0 | 0 | 0 | – | – | – | – | – | – | –
CC(C)[C@H]1C(=O)N[C@@H](CCCNC(=N)N)C(=O)NCC(=O)N[C@@H](CC(=O)O)C(=O)N[C@H](Cc2ccccc2)C(=O)N1C [cilengitide] | 98.6 | 95.4 | 96.5 | 80.5 | 41.1 | 97.6 | 94.3 | 87.1 | 89.4 | 70.5 | 103 | 103 | 92.6 | 116 | 103 | 98.1 | 101 | 98.8 | 79.8 | 17 | 1.39 | – | > 10 | 1.57 | 5.8 | 2.8 | 0 | 7.7 | – | – | – | – | – | – | –
COC(=O)c1ccccc1O [methyl-salicylate] | 103 | 99.4 | 101 | 81 | 101 | – | – | – | – | – | 112 | 101 | 102 | 90.9 | 102 | 110 | 104 | 102 | 102 | 97.3 | > 10 | – | > 10 | > 10 | 0 | – | 0 | 0 | 98.4 | 97.2 | 101 | 101 | 102 | > 10 | 0
COC(=O)Nc1nc2cc([S+]([O-])c3ccccc3)ccc2[nH]1 (stereo not given) [oxfendazole] | 97 | 108 | 104 | 94.7 | 97.5 | – | – | – | – | – | 90.6 | 92.5 | 98.2 | 98.1 | 75.3 | 101 | 106 | 100 | 104 | 90.6 | > 10 | – | > 10 | > 10 | 0 | – | 1.2 | 0 | 101 | 96.6 | 103 | 98.1 | 103 | > 10 | 0
O=C(CCCCCCC(=O)Nc1cccnc1)NO [pyroxamide] | 102 | 92.9 | 94.3 | 91.6 | 47.6 | – | – | – | – | – | 106 | 99.6 | 98.7 | 76.8 | 7.6 | 99.6 | 103 | 96.3 | 99.9 | 46 | 1.93 | – | 1.54 | 3.14 | 4.2 | – | 8.7 | 2.9 | 102 | 97.8 | 101 | 90 | 12.6 | 2.22 | 6.5
O=C(/C=C\n1cnc(-c2cc(C(F)(F)F)cc(C(F)(F)F)c2)n1)NNc1cnccn1 [selinexor] | 97 | 87.9 | 89 | 50.4 | 44.2 | 104 | 93.4 | 66 | 57 | 56.4 | 108 | 99.2 | 49.6 | 31.9 | 24.5 | 98.9 | 102 | 81.9 | 42.4 | 24.3 | 0.248 | – | 0.0686 | 0.319 | 10.4 | 12.5 | 19.9 | 12.9 | 97.1 | 89.9 | 75.8 | 12.7 | 7.6 | 0.189 | 18.8
Cc1ccnc(NS(=O)(=O)c2ccc(N)cc2)n1 [sulfamerazine] | 97 | 89.8 | 92 | 98.7 | 98.2 | – | – | – | – | – | 104 | 94.1 | 95.5 | 109 | 89.3 | 104 | 98.5 | 97.8 | 97.8 | 97.8 | > 10 | – | > 10 | > 10 | 0 | – | 0 | 0 | 102 | 102 | 94.3 | 97.6 | 100 | > 10 | 0
NCCCC[C@H](NC(=O)[C@@H]1CCCN1C(=O)[C@@H]1CSSC[C@H](NC(=O)CNC(=O)CNC(=O)CN)C(=O)N[C@@H](Cc2ccc(O)cc2)C(=O)N[C@@H](Cc2ccccc2)C(=O)N[C@@H](CCC(N)=O)C(=O)N[C@@H](CC(N)=O)C(=O)N1)C(=O)NCC(N)=O [terlipressin] | 100 | 96.5 | 98 | 100 | 103 | 93.9 | 92 | 102 | 95.8 | 96.4 | 94.4 | 105 | 94.3 | 97.4 | 110 | 93.7 | 100 | 86.1 | 91.2 | 110 | > 10 | > 10 | > 10 | > 10 | 0 | 0 | 0 | 0 | – | – | – | – | – | – | –
